In ChEMBL document CHEMBL1131911, “Synthesis of 2-(2-adamantyl)piperidines and structure anti-influenza virus A activity relationship study using a combination of NMR spectroscopy and molecular modeling” (1999):
Converted amounts (≈) assume the structure as drawn.

Key:
MDCK [1] = assay: Concentration required to reduce the viability of MDCK cells; type: functional, Canis lupus familiaris
MDCK [2] = assay: Anti-influenza virus activity was evaluated in Madin-Darby canine kidney (MDCK) cells against influenza A H3N2 (X31); type: functional; settings: Canis lupus familiaris
MDCK [3] = assay: Anti-influenza virus activity was evaluated in Madin-Darby canine kidney (MDCK) cells against influenza B (Hong Kong/5/72); type: functional; settings: Canis lupus familiaris
MDCK [4] = assay: Anti-influenza virus activity was evaluated in Madin-Darby canine kidney (MDCK) cells against influenza A H2N2 strain (A2 Japan/305/57); type: functional; settings: Canis lupus familiaris

NC(=O)c1ncn([C@@H]2O[C@H](CO)[C@@H](O)[C@H]2O)n1 [RIBAVIRIN]
MTC50 (MDCK [1]): >1025 µM | MIC50 (MDCK [2]): 41 µM (≈ 10 µg/mL) | MIC50 (MDCK [3]): 41 µM (≈ 10 µg/mL) | MIC50 (MDCK [4]): 31.1 µM (≈ 7.59 µg/mL)

NC12CC3CC(CC(C3)C1)C2 [AMANTADINE]
MTC50 (MDCK [1]): 1333 µM | MIC50 (MDCK [4]): 28.3 µM (≈ 4.28 µg/mL)

CCN1CCCCC1C1C2CC3CC(C2)CC1C3 (stereo unspecified)
MTC50 (MDCK [1]): 143 µM | MIC50 (MDCK [2]): > 28 µM | MIC50 (MDCK [3]): > 28 µM | MIC50 (MDCK [4]): > 28 µM

CN1CCCCC1C1C2CC3CC(C2)CC1C3 (stereo unspecified)
MTC50 (MDCK [1]): 977 µM | MIC50 (MDCK [2]): > 143 µM | MIC50 (MDCK [3]): > 143 µM | MIC50 (MDCK [4]): > 143 µM

C1CCC(C2C3CC4CC(C3)CC2C4)NC1 (stereo unspecified)
MTC50 (MDCK [1]): >977 µM | MIC50 (MDCK [2]): > 977 µM | MIC50 (MDCK [3]): > 977 µM | MIC50 (MDCK [4]): 7.8 µM (≈ 1.71 µg/mL)

C1CCN(CC2CC2)C(C2C3CC4CC(C3)CC2C4)C1 (stereo unspecified)
MTC50 (MDCK [1]): 977 µM | MIC50 (MDCK [2]): > 143 µM | MIC50 (MDCK [3]): > 143 µM | MIC50 (MDCK [4]): 143 µM (≈ 39.1 µg/mL)

CC(N)C12CC3CC(CC(C3)C1)C2 (stereo unspecified) [RIMANTADINE]
MTC50 (MDCK [1]): 1160 µM | MIC50 (MDCK [2]): > 56 µM | MIC50 (MDCK [3]): > 93 µM | MIC50 (MDCK [4]): 20.9 µM (≈ 3.75 µg/mL)
